Legend:
HLA-A02:01 = HLA-A02:01 (Homo sapiens, UniProt P04439, D140Y/D185E/D98H/E176V/E277Q/G131W/G231S/I119V/I121R/I166T/I218V/L300P/L318F/N151K/N90K/P208A/P217A/Q86G/Q94H/R138H/R169H/T345S); assay: Peptide-MHC tetramer exchange assay (competitive peptide binding, QuickSwitch Quant HLA-A02:01 tetramer); conditions: percentage of replacement of the exchangeable peptide by the test peptide
[1] = tested on: CD8+ T cell cultures / PBMCs from healthy donors; assay: IFN-gamma ELISpot assay; format: cell-based, human; set-up: Donor1_value / Donor3_value / Donor4_value: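 Spot-forming units per 100000 cells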; conditions: IFN-gamma ELISpot result; for Donor1_value: healthy donor 1; for Donor2_value: healthy donor 2; for Donor3_value: healthy donor 3; for Donor4_value: healthy donor 4;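 for Donor2 value: Spot-forming units per 100000 cells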
From the text: We experimentally assessed the binding affinity of the 38 peptides through a competitive peptide binding assay (STAR Methods). […] Subsequently, we investigated the immunogenicity of these peptides using an interferon (IFN)-gamma ELISpot assay (STAR Methods). […] These peptides represent promising candidates for further investigation as potential immunotherapy targets. Peripheral blood mononuclear cells (PBMCs) from healthy donors were isolated at Zhongshan Hospital, Fudan University using Lymphoprep (07851, Stemcell) and cultured with ImmunoCult-XF T cell Expansion Medium (10981, Stemcell) supplemented with human recombinant IL-2 (78036, Stemcell). ImmunoCult Human CD3/CD28 T cell Activator (10971, Stemcell) was added to the cell suspension, which was then incubated for 3 days. Subsequent expansion of the cell suspension was carried out every two days as per manufacturer's instructions. The entire process was approved by the Institutional Review Board of Zhongshan Hospital, Fudan University (B2024-412). ELISPOT plates (2110003, […]) were pretreated with PBS before dispensing cell suspensions (nearly 1×10^5 cells) with synthesized peptide (10 μg/mL) into each well. After incubation at 37°C in a CO2 incubator for 20 h, plates were washed and incubated with anti-human IFN-γ followed by Streptavidin-HRP. Staining of Streptavidin-HRP was performed using AEC solution, and the reaction was stopped by rinsing with cold tap water. ELISPOT plates were scanned and counted using an ImmunoSpot plate reader and associated software from Cellular Technologies, Ltd.

Row | Sequence | Q1_Replacement_Percentage (HLA-A02:01) [%] | Donor1_value [1] | Donor2_value [1] | Donor3_value [1] | Donor4_value [1]
1 | FLNEACLFEI | 92 | 606 | 0 | 7 | 10
2 | KLLMPLLGV | 97.9 | 384 | 0 | 0 | 13
3 | SLLDLYQLA | 91.5 | 0 | 1 | 0 | 0
4 | VIWDVLSGI | 95.5 | 678 | 0 | 0 | 1
5 | LLFGLALIEV | – | 28 | 42 | 7 | 0
6 | ILFGISLREV | 96.2 | 0 | 24 | 20 | 8
7 | LQILQDGQFLV | 81.9 | 0 | 0 | 32 | 0
8 | LLASYNDDDIYL | 98.2 | 426 | 0 | 3 | 8
9 | GLAEYLFDKLTL | 89.8 | 584 | 0 | 9 | 0
10 | YTLDEKVAEL | 91.1 | 640 | 29 | 2 | 0
11 | FLSTLTTFI | 89.1 | 0 | 41 | 15 | 0
12 | AMLKNTVPI | 89.9 | 0 | 0 | 18 | 0
13 | YLHEQVKTI | 83.5 | 0 | 59 | 24 | 9
14 | KVLEFLAKL | 88.2 | 545 | 58 | 12 | 0
15 | GLLMPLLGVIFL | 78.9 | 4 | 33 | 8 | 0
16 | GLLMPLLGVI | 91.4 | 631 | 10 | 3 | 0
17 | FLTSGEDAV | 98.3 | 494 | 21 | 0 | 0
18 | FLLLVDAAV | 83.5 | 571 | 34 | 0 | 12
19 | FLWGPRAHSEV | 90.4 | 558 | 0 | 10 | 18

Row | Sequence | Q1_Replacement_Percentage (HLA-A02:01) [%] | Donor1_value [1] | Donor2_value [1] | Donor3_value [1] | Donor4_value [1]
20 | FLAKLNNTV | 88.1 | 2 | 56 | 18 | 0
21 | YVKVLEYVIKV | 14.7 | 0 | 56 | 17 | 0
22 | GLLMPLLGV | 91.1 | 521 | 32 | 1 | 11
23 | FLRFANYCRI | 30 | 0 | 8 | 8 | 0
24 | RLELVFGL | 23.4 | 0 | 0 | 8 | 0
25 | FLYEVFAQL | 92.7 | 654 | 7 | 4 | 0
26 | LVLGTLEEV | 85.1 | 666 | 17 | 15 | 11
27 | LLMPLLGVI | 96.3 | 627 | 0 | 11 | 48
28 | KVADLVGFLL | 84.3 | 570 | 0 | 2 | 0
29 | FLLLVDAAVQ | 29.3 | 0 | 31 | 16 | 0
30 | LLQISNWFI | 32.7 | 30 | 0 | 30 | 0
31 | VLLPASLFI | 94.8 | 634 | 26 | 0 | 0
32 | QILQDGQFLV | 94 | 451 | 37 | 0 | 17
33 | YIYDILLPV | 88.9 | 17 | 54 | 19 | 0
34 | KMKVLEFLAKV | 42.8 | 0 | 2 | 18 | 0
35 | KVLEYVIKV | 80.8 | 0 | 23 | 19 | 0
36 | YRLADHVGCV | 56.3 | 0 | 30 | 9 | 0
37 | RKLLMPLLGV | 22.9 | 0 | 0 | 16 | 0
38 | YMLWFLLRHV | 32.4 | 0 | 0 | 29 | 0

Source: PMC11705763, “Tumor-associated antigen prediction using a single-sample gene expression state inference algorithm” (Cell Reports Methods, 2024)
